Measured values: patent publication US9700049B2, “Anthranilamides in combination with fungicides” (BAYER INTELLECTUAL PROPERTY GMBH, priority 2010, dated 2017)

How the values were obtained:
[1] = test system: cotton aphid (Aphis gossypii); experiment: Aphis gossypii test; assay type: in vivo; conditions: 500 ppm, applied individually
Excerpt: The kill rates determined a.re entered into Colby's formula.

[2] = test system: green peach aphid (Myzus persicae); experiment: Myzus persicae test (run-off application); assay type: in vivo; conditions: 500 ppm, applied individually
Excerpt: Myzus persicae Test (Run-Off Application)

[3] = test system: green peach aphid (Myzus persicae); experiment: Myzus persicae test (spray on infested cabbage leaves); assay type: in vivo; conditions: 100 g/ha, applied individually
[4] = test system: larvae of the mustard beetle (Phaedon cochleariae); experiment: Phaedon cochleariae larvae test; conditions: for pest or weed control at 100 g/ha: Phaedon cochleariae, 120 h, read-out: Kill in % after 5d
[5] = test system: larvae of the armyworm (Spodoptera frugiperda); experiment: Spodoptera frugiperda larvae test; assay type: in vivo; conditions: applied individually; for Kill in % after 2d: 100 g/ha
Experimental: Spodoptera frugiperda Larvae Test
Cabbage leaves (Brassica oleracea) are treated by being sprayed with wits the preparation of active compound of the desired concentration and are populated with larvae of the armyworm (Spodoptera frugiperda) while the leaves are still moist.

Compound: Cn1c(=O)c2sc3c(=O)n(C)c(=O)c3sc2c1=O [2,6-DIMETHYL-1H,5H-[1,4]DITHIINO[2,3-C:5,6-C′]DIPYRROLE-1,3,5,7(2H,6H)-TETRONE]
- Kill in % after 1d ([1]; after 1 d): 0%
- Kill in % after 3 d ([1]; after 3 d): 0%
- Kill in % after 1d [2]: 0%

Compound: CO/C=C(/C(=O)OC)c1ccccc1Oc1cc(Oc2ccccc2C#N)ncn1 [azoxystrobin]
- Kill in % after 1d [3]: 0%
- Kill in % after 5d ([4]; 100 g/ha, applied individually): 0%

Compound: O=C(Nc1ccccc1-c1ccc(Cl)cc1)c1cccnc1Cl [boscalid]
- pest or weed control at 100 g/ha [4]: 0%

Compound: CCC1(C(=O)N[C@H](C)c2ccc(Cl)cc2)C(C)C1(Cl)Cl (some centres unmarked) [carpropamid]
- pest or weed control at 100 g/ha [4]: 0%

Compound: CSC1=N[C@@](C)(c2ccccc2)C(=O)N1Nc1ccccc1 [fenamidone]
- pest or weed control at 100 g/ha [4]: 0%

Compound: N#Cc1c[nH]cc1-c1cccc2c1OC(F)(F)O2 [fludioxonil]
- pest or weed control at 100 g/ha [4]: 0%

Compound: O=C(NCc1ncc(C(F)(F)F)cc1Cl)c1c(Cl)cccc1Cl [fluopicolide]
- Kill in % after 5d ([4]; 100 g/ha, applied individually): 0%

Compound: O=C(NCCc1ncc(C(F)(F)F)cc1Cl)c1ccccc1C(F)(F)F [fluopyram]
- Kill in % after 2d ([1]; after 2 d): 0%
- Kill in % after 2d ([4]; 100 g/ha, applied individually, after 2 d): 0%

Compound: CO/N=C(/C1=NOCCO1)c1ccccc1Oc1ncnc(Oc2ccccc2Cl)c1F [fluoxastrobin]
- pest or weed control at 100 g/ha [4]: 0%

Compound: O=c1c2cc(F)ccc2nc(-n2cncn2)n1-c1ccc(Cl)cc1Cl [fluquinconazole]
- pest or weed control at 100 g/ha [4]: 0%

Compound: CC(C)Oc1cccc(NC(=O)c2ccccc2C(F)(F)F)c1 [flutolanil]
- Kill in % after 5d [3]: 0%
- pest or weed control at 100 g/ha [4]: 0%

Compound: C=CCOC(Cn1ccnc1)c1ccc(Cl)cc1Cl (centres unmarked) [imazalil]
- Kill in % after 2d [5]: 0%
- pest or weed control at 100 g/ha [4]: 0%

Compound: CC(C)C1CCC(Cc2ccc(Cl)cc2)C1(O)Cn1cncn1 (centres unmarked) [ipconazole]
- Kill in % after 1d [3]: 0%
- pest or weed control at 100 g/ha [4]: 0%

Compound: N#Cc1ccccc1NC(=O)c1snc(Cl)c1Cl [isotianil]
- Kill in % after 5d ([4]; 100 g/ha, applied individually): 0%

Compound: COCC(=O)N(c1c(C)cccc1C)[C@H](C)C(=O)OC [mefenoxam]
- Kill in % after 1d [3]: 0%
- Kill in % after 5d ([4]; 100 g/ha, applied individually): 0%

Compound: COCC(=O)N(c1c(C)cccc1C)C(C)C(=O)OC (centres unmarked) [metalaxyl]
- pest or weed control at 100 g/ha [4]: 0%

Compound: CNC(=O)/C(=N/OC)c1ccccc1Oc1ccccc1 [metominostrobin]
- Kill in % after 1d [3]: 0%

Compound: O=C(Nc1ccccc1)N(Cc1ccc(Cl)cc1)C1CCCC1 [pencycuron]
- pest or weed control at 100 g/ha [4]: 0%

Compound: Cc1nn(C)c(F)c1C(=O)Nc1ccccc1C(C)CC(C)C (centres unmarked) [penflufen]
- Kill in % after 2d [5]: 0%
- Kill in % after 5d ([4]; 100 g/ha, applied individually): 0%

Compound: OC(Cc1ccccc1Cl)(Cn1nc[nH]c1=S)C1(Cl)CC1 (centres unmarked) [prothioconazole]
- pest or weed control at 100 g/ha [4]: 0%

Compound: Cn1cc(C(=O)Nc2ccccc2C2CC2C2CC2)c(C(F)F)n1 (centres unmarked) [sedaxane]
- Kill in % after 5d ([4]; 100 g/ha, applied individually): 0%

Compound: CC(C)(C)C(O)(CCc1ccc(Cl)cc1)Cn1cncn1 (centres unmarked) [tebuconazole]
- Kill in % after 5d [3]: 0%
- pest or weed control at 100 g/ha [4]: 0%

Compound: CC(C)(C)C(O)C(Oc1ccc(Cl)cc1)n1cncn1 (centres unmarked) [triadimenol]
- pest or weed control at 100 g/ha [4]: 0%

Compound: O=[n+]1[n-]c(-n2ccnc2)nc2ccc(Cl)cc21 [triazoxide]
- pest or weed control at 100 g/ha [4]: 0%

Compound: CON=C(C(=O)OC)c1ccccc1CON=C(C)c1cccc(C(F)(F)F)c1 [trifloxystrobin]
- pest or weed control at 100 g/ha [4]: 0%

Compound: fosetyl-aluminium
- Kill in % after 6d ([5]; 500 g/ha, after 6 d): 0%

Compound: mancozeb
- Kill in % after 1d [3]: 0%
- Kill in % after 5d ([4]; 100 g/ha, applied individually): 0%
